Results on ten compounds are retold here after US20250213546A1, “TREATING CANCER WITH SMALL MOLECULES THAT INHIBIT ACSS-2” (DREXEL UNIVERSITY, priority 2022, published 2025).

Molecules are shown by their SMILES. Like-named read-outs stand apart in the source and are kept apart here.

Data set [1] is described as follows: Human liver microsome stability. Type of data set: in vitro ADME. Particulars: for Human Liver Microsome Stability Remaining(T = 60 min) / Human Liver Microsome Stability Remaining(NCF = 60 min): given as fraction. As for the experimental part: (§1) Metabolic Stability and Plasma Stability. Test compound Working solution: 5 μL of compound stock solution (10 mM in dimethyl sulfoxide (DMSO)) were diluted with 495 μL of DMSO (Working solution concentration: 100 μM, 100% DMSO). Propantheline bromide Working solution: 5 μL of Propantheline bromide stock solution (10 mM in H2O) were diluted with 495 μL of H2O (Working solution concentration: 100 μM, 100% H2O)
In general terms: Liver microsomes are a subcellular fraction often used to study metabolism.

The nature of another data set: Human plasma stability. Type of data set: in vitro ADME. Particulars: both sexes, 37° C., up to 120 min, read-out: Human Plasma Stability T1/2. As for the experimental part:
as §1
Human plasma from 3 males and 3 females was obtained. Heparin was used as the anticoagulant. The pooled frozen plasma was thawed in a water bath at 37° C. prior to experiment. Plasma was centrifuged at 4000 rpm for 5 min and the clots were removed if any. Using an Apricot automation workstation, 98 μL/well of blank plasma were added to all 96-well reaction plates. (Blank, T0, T10, T30, T60 and T120). The appointed incubation time points are T0 (0 min), Tn (n=0, 10, 30, 60, 120 min). An Apricot automation workstation was used to add 2 μL/well of working solution (100 μM) to all reaction plates except Blank. (T0, T10, T30, T60 and T120). All reaction plates containing mixtures of compound and plasma were incubated at 37° C. in water bath. The reaction plates were incubated at 37° C., and timer was started. At the end of incubation, 500 μL of stop solution was added and mixed (200 ng/mL tolbutamide and 200 ng/ml labetalol in ACN) to precipitate protein. Each plate was sealed and shaken for 20 minutes. After shaking, each plate was centrifuged at 4000 rpm and 4° C. for 20 minutes. After centrifugation, an Apricot automation workstation was used to transfer 150 μL of supernatant from each reaction plate to its corresponding bioanaylsis plate. Each bioanalysis plate was sealed and shaken for 10 minutes prior to LC-MS/MS analysis. The % remaining of test compound after incubation in plasma was calculated using following equation: Remaining=100×(PAR at appointed incubation time/PAR at T0 time) where PAR is the peak area ratio of analyte versus internal standard (IS).

A further data set addresses hACSS-2 (Homo sapiens (Human), UniProt Q9NR19). The data set can be described thus: Surface plasmon resonance (SPR) binding to immobilized hACSS-2. Particulars: for koff / kon: 1:1 binding model. The protocol:
SPR characterization. All binding assays were performed on a ProteOn XPR36 SPR Protein Interaction Array System (Bio-Rad Laboratories, Hercules, CA, USA). The instrument temperature was set at 25° C. for all kinetic analyses. ProteOn GLH sensor chips were preconditioned with two short pulses each (10 s) of 50 mM NaOH, 100 mM HCl, and 0.5% sodium dodecyl […]. Then the system was equilibrated with running buffer (1×PBS pH 7.4, 3% DMSO and 0.005% polysorbate 20). The surface of a GLH sensor chip was activated with a 1:100 dilution of a 1:1 mixture of 1-ethyl-3-(3-dimethylaminopropyl) carbodiimide hydrochloride (0.2 M) and sulfo-N-hydroxysuccinimide (0.05 M). […] Then, after unreacted protein had been washed out, excess active ester groups on the sensor surface were capped by a 5 min injection of 1M ethanolamine HCl (pH 8.0) at a flow rate of 5 μL/min. A reference surface was similarly created by immobilizing a nonspecific protein (IgG b12 anti-HIV-1 gp120; was obtained through the NIH AIDS Reagent Program, Division of AIDS, NIAID, NIH: Anti-HIV-1 gp120 Monoclonal (IgG1 b12) from Dr. Dennis Burton and Carlos Barbas) and was used as a background to correct nonspecific binding. Serial dilutions of hACSS-2 inhibitors were then prepared in the running buffer and injected at a flow rate of 100 μL/min, for a 50 s association phase, followed by up to a 5 min dissociation phase using the “one-shot kinetics” capability of the ProteOn instrument. Data were analyzed using the ProteOn Manager Software version 3.0 (Bio-Rad). The responses from the reference flow cell were subtracted to account for the nonspecific binding and injection artifacts. Experimental data were fitted to a simple 1:1 binding model. Experiments were performed in triplicate to detect kinetic and equilibrium dissociation constants (KD).
Overproduction of hACSS-2 was achieved using a prokaryotic expression system. […] The bacterial expressions were then spun down, the supernatant discarded, and the pellets resuspended. After the cells were lysed via sonication, the sample was subjected to ultracentrifugation, and the clarified lysate was applied to a Talon cobalt resin affinity column (Clonetech Laboratories, Mountain View, CA). The bound protein was eluted from the column using 1×PBS pH 7.4 with 0.3 M imidazole, then dialyzed overnight into 20 mM Tris-HCl pH 8.0, concentrated to 10 mg/mL, aliquoted, and stored at −80° C.
Background: Surface plasmon resonance follows binding to a sensor surface in real time, without labels.

The subject of the next data set is MDR1. The data set can be described thus: in vitro. Particulars: dog, MDCK-MDR1, pH 7.4, Mean % Solution Recovery A to B. As for the experimental part: MDCKI MDR1 cell permeability assessment was performed to mimic the blood brain barrier. MDR1-MDCK I cells were seeded onto […] (PET) in 96-well Corning insert systems at 2.5×10^5 cells/mL until to 4-7 days for confluent cell monolayer formation. The transport buffer in the study was HBSS with 10.0 mM HEPES at pH 7.40+0.05. Test compounds were tested at 2.00 μM bi-directionally in duplicate. […] Final DMSO concentration was adjusted to less than 1%. The plate was incubated for 1.5 hours in CO2 incubator at 37±1° C., with 5% CO2 at saturated humidity without shaking. All samples after mixed with acetonitrile containing internal standard were centrifuged at 3220×g for 10 min. For all samples, 150 μL supernatant solution was diluted with 150 μL ultra-pure water for LC-MS/MS analysis. In addition, the efflux ratio of each compound was also determined. Test and reference compounds were quantified by LC-MS/MS analysis based on the peak area ratio of analyte/IS. After transport assay, Lucifer yellow rejection assay are applied to determine the cell monolayer integrity. Buffers are removed from both apical and basolateral chambers, followed by the addition of 75 μL of 100 μM lucifer yellow in transport buffer and 250 μL transport buffer in apical and basolateral chambers, respectively. […] After 30 minutes incubation, 20 μL of lucifer yellow samples are taken from the apical sides, followed by the addition of 60 μL of Transport Buffer. And then 80 μL of lucifer yellow samples are taken from the basolateral sides.
The apparent permeability coefficient Papp (cm/s) was calculated using the equation: Papp=(dCr/dt)×Vr/(A×C0) where dCr/dt is the cumulative concentration of compound in the receiver chamber as a function of time (μM/s); Vr is the solution volume in the receiver chamber (0.075 mL on the apical side, 0.25 mL on the basolateral side); A is the surface area for the transport, i.e. 0.0804 cm^2 for the area of the monolayer; CO is the initial concentration in the donor chamber (μM). […] Percent of lucifer yellow in basolateral well is calculated using the equation: Where RFUApical and RFUBasolateral are the relative fluorescence unit values of lucifer yellow in the apical and basolateral wells, respectively; VApical and VBasolateral are the volume of apical and basolateral wells (0.075 mL and 0.25 mL), respectively. The % Lucifer Yellow should be less than 1.0.

Where [2] appears, read: Langmuir isotherm equilibrium fit, mean, n = 3, read-out: KD [μM] equilibrium.
The mark [3] stands for this setting: global fit, mean, n = 3, read-out: KD [μM] kinetic/global.
Where [4] appears, read: read-out: Affinity (KD in μM) for hACSS-2 mean ± SD (n = 3), SPR, one site binding model isotherm, triplicate.

Sequence of hACSS-2 (Q9NR19 whole entry): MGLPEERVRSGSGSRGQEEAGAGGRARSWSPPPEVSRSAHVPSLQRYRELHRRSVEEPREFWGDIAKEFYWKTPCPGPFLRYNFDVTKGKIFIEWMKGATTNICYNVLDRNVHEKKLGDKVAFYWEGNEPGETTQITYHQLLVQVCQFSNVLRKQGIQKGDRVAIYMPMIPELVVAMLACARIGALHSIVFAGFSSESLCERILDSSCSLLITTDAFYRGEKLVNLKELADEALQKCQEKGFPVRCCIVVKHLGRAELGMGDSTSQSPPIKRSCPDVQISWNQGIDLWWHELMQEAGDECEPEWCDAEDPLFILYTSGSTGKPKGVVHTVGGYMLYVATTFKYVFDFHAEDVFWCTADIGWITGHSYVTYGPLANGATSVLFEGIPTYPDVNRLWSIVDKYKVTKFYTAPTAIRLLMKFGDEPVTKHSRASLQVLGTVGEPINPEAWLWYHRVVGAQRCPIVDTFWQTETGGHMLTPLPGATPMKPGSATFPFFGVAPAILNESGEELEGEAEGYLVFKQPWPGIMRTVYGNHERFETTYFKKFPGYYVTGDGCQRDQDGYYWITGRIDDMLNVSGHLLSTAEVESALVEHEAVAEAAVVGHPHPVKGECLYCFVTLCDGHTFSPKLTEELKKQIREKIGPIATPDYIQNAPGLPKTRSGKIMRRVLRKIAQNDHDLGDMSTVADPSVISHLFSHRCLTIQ

For orientation: koff means the rate constant with which the complex falls apart. Lower therefore signals slow dissociation. In general, kon refers to a measure of how fast the partners come together. High values mean fast association, low ones slow association. As for `Cc1cccn2c(CC(=O)NCCC(c3ccccc3)c3ccco3)cnc12` (stereo not shown) [AD-3766], the “Human Liver Microsome Stability Remaining(T = 60 min)” value in data set [1] turned out to be 0.0005. In addition, the “Human Liver Microsome Stability Remaining(NCF = 60 min)” value in data set [1] was 0.9639. The “Human Liver Microsome Stability CLint(liver)” value in data set [1] (human liver microsomes, scaled to liver) was 81.869346 L/h/kg. The half-life at 2 µM in the data set “Human plasma stability” is above 289 min. At hACSS-2 (mean, n = 3), the koff was 0.359 s⁻¹. The same compound returned a kon on hACSS-2 (mean, n = 3) of 5010 M⁻¹ s⁻¹. The Kd at hACSS-2 (setting [2]) came to 70.6 µM; at hACSS-2 (setting [3]) it was 77.6 µM; on hACSS-2 (setting [4]), 67 ± 13 µM.
In the case of `CC(C)[N+](C)(CCOC(=O)C1c2ccccc2Oc2ccccc21)C(C)C` [Propantheline Bromide, Propantheline bromide, reference compound], in “Human plasma stability”, the half-life at 2 µM was determined as 18.6 min.
Consider `C[C@]12CC[C@H]3[C@@H](CCC4=CC(=O)CC[C@@]43C)[C@@H]1CC[C@@H]2O` [Testosterone, reference compound], for which, in data set [1], the “Human Liver Microsome Stability Remaining(T = 60 min)” value was 0.06959 and the “Human Liver Microsome Stability Remaining(NCF = 60 min)” value was 0.8976.
The like results for `O=C(O)Cc1ccccc1Nc1c(Cl)cccc1Cl` [Diclofenac, reference compound] were, in that order, 0.00044 and 0.8763.
For `CN1CCN(CCC(=O)N2CCCC(c3ccccc3)(c3ccccc3)C2)CC1` [AD-0029], on hACSS-2 (setting [4]), the Kd is 356 ± 108 µM.
`CN1CCC(O)(C(=O)NCCc2ccccc2Oc2ccccc2)CC1` [AD-7346] registered an off-rate constant (koff) on hACSS-2 (mean, n = 3) of 0.399 s⁻¹. The kon on hACSS-2 (mean, n = 3) came to 10100 M⁻¹ s⁻¹. Besides, the Kd turned out to be 39.8 µM at hACSS-2 (setting [2]), 49.4 µM at hACSS-2 (setting [3]) and 53 ± 21 µM at hACSS-2 (setting [4]).
Regarding `NC1(C(=O)N2CCCC(c3ccccc3)(c3ccccc3)C2)CC1` [AD-6772], the Kd at hACSS-2 (setting [4]) was found to be 80 ± 20 µM.
For the compound `COCCc1ccc(OCC(O)CNC(C)C)cc1` (stereo not shown) [Metoprolol, reference compound], the recovery at 1.5 h, 2 μM in the data set on MDR1 was 94.2%.
Regarding `O=S(=O)(NCCC(c1ccccc1)c1ccco1)N1CCOCC1` (stereo not shown) [AD-4859], the Kd on hACSS-2 (setting [4]) was 52 ± 2 µM.
Compound `O=C(CC1CCNC1)NCCC(c1ccccc1)c1ccccc1` (stereo not shown) [AD-8972] yielded a koff on hACSS-2 (mean, n = 3) of 0.401 s⁻¹. At hACSS-2 (mean, n = 3), this compound gave a kon of 2830 M⁻¹ s⁻¹. Further, the Kd at hACSS-2 (setting [2]) worked out at 124 µM; on hACSS-2 (setting [3]) it was 149 µM; on hACSS-2 (setting [4]) it was 116 ± 82 µM.
